What was measured:
[1] = Experimental log P octanol/water by UV-Vis spectroscopy assay; conditions: octanol/water (1:1), pH 7
Method: (§1) In order to validate a prediction model, the experimental and theoretical log P of five anthraquinones were assessed. Theoretical values were determined using Chemicalize's online software from ChemAxon, and experimental values were determined by UV-Vis spectroscopy assay using the protocol below.
(§2) A 1:1 mixture of octanol and water (pH=7) was prepared 24 hours before the assay in a reparatory funnel. A precise amount of the product was then added, and sonicated until complete dissolution. The phases were then vigorously stirred and left for 6 hours. The two phases were then separated, the organic phase diluted and analysed by UV spectrophotometry using a calibration curve previously carried out. The aqueous phase was acidified and evaporated. The residue was dissolved in octanol for analysis in UV-Vis spectrophotometry with the same method.

[2] = UV-Visible analysis in methanol; format: physicochemical; conditions: for Colour: methanol solution; for log ε / λmax visible / L1/2: methanol; for log ε: log of average molar extinction coefficient, characterizes the strength of the colour; for λmax visible: maximum absorption in visible spectra 400-800 nm, 1 cm quartz cuvette, characterizes the colour; for L1/2: width measured at A/2, characterizes the brilliance of the colour
Method: UV-Visible analysis was carried on a Genesys10 UV photometer and recorded with the help of “VisionLite Scan” software. For each molecule, a certain amount was weighed with a precision balance and fully dissolved (under sonication if necessary) in methanol to obtain a mother solution at 1 mg/mL. Serial dilutions were performed to obtain samples in a range from 0.0025 mg/mL to 0.5 mg/mL. Samples were analyzed from 190 to 800 nm in a 1 cm quartz cuvette. For each concentration, the wavelength of maximum absorption in the visible spectra (400-800 nm) was recorded with a precision of 2 nm, and the width was measured at A/2. Additionally, molar extinction coefficient ε was calculated for each sample and the log of the average value presented. λmax visible characterizes the colour, L1/2 characterizes the brilliance of the colour, ε characterizes the strength of the colour.

[3] = pH 7
Method: as §1, §2

## O=C1c2cccc(O)c2C(=O)c2c(O)cccc21 [1,8-dihydroxy anthraquinone]
[1]
  logP at 6 h: 3.4

## O=C1c2ccccc2C(=O)c2c1ccc(O)c2O [Alizarin]
[1]
  logP at 6 h: 2.8

## Cc1cc(O)c2c(c1)C(=O)c1cccc(O)c1C2=O [Chrysophanic acid]
[1]
  logP at 6 h: 4

## Cc1cc(O)cc2c1C(=O)c1c(O)cccc1C2=O [Compound 5, 3,8-dihydroxy-1-methyl-anthracene-9,10-dione, reference compound]
[2]
  Colour: Yellow
  log ε: 3.5
  λmax visible: 408 nm
  L1/2: 94 nm
[1]
  logP at 6 h: 3.2

## COc1cc(C)c2c(c1)C(=O)c1cccc(O)c1C2=O [Compound 6, 8-hydroxy-3-methoxy-1-methyl-anthracene-9,10-dione, reference compound]
[2]
  Colour: Stronger yellow
  log ε: 3.62
  λmax visible: 406 nm
  L1/2: 81 nm

## Cc1c(C(=O)O)c(O)cc2c1C(=O)c1c(O)cccc1C2=O [Compound 7, 3,8-dihydroxy-1-methyl-9,10-dioxo-anthracene-2-carboxylic acid, reference compound]
[2]
  Colour: Yellow
  log ε: 3.9
  λmax visible: 408 nm
  L1/2: 86 nm

## Cc1cc(N)cc2c1C(=O)c1c(O)cccc1C2=O [Compound 8, 3-amino-8-hydroxy-1-methyl-anthracene-9,10-dione]
[2]
  Colour: Orange
  log ε: 2.44
  λmax visible: 452 nm
  L1/2: 142 nm

## Cc1cc(Nc2ccccc2)cc2c1C(=O)c1c(O)cccc1C2=O [Compound 9, 3-anilino-8-hydroxy-1-methyl-anthracene-9,10-dione]
[2]
  Colour: “Carmine-like” red
  log ε: 2.25
  λmax visible: 480 nm
  L1/2: 104 nm

## Cc1cc(Nc2ccccc2)cc2c1C(=O)c1c(Nc3ccccc3)cccc1C2=O [Compound 10, 3,8-dianilino-1-methyl-anthracene-9,10-dione]
[2]
  Colour: Purple/red purplish
  log ε: 2.72
  λmax visible: 496 nm
  L1/2: 152 nm

## CC(=O)Nc1cccc(Nc2cc(C)c3c(c2)C(=O)c2cccc(Nc4cccc(NC(C)=O)c4)c2C3=O)c1 [Compound 11, N-(3-((6-(3-acetamidoanilino)-8-methyl-9,10-dioxo-1-anthryl)amino)phenyl) Acetamide]
[2]
  Colour: Purple
  log ε: 2.8
  λmax visible: 510 nm
  L1/2: 128 nm

## Cc1cc(NC2CCCCC2)cc2c1C(=O)c1c(NC3CCCCC3)cccc1C2=O [Compound 12, 3,8-bis(cyclohexylamino)-1-methyl-anthracene-9,10-dione]
[2]
  Colour: Purple
  log ε: 2.46
  λmax visible: 524 nm
  L1/2: 94 nm

## Cc1ccc(S(=O)(=O)Oc2cccc3c2C(=O)c2c(C)cc(Nc4ccccc4)cc2C3=O)cc1 [Compound 14, (6-anilino-8-methyl-9,10-dioxo-1-anthryl)-4-methylbenzenesulfonate]
[2]
  Colour: Red-purple
  log ε: 3.12
  λmax visible: 508 nm
  L1/2: 104 nm

## Cc1cc(O)c(N)c2c1C(=O)c1c(O)cccc1C2=O [Compound 17b, 1-amino-2,5-dihydroxy-4-methyl-anthracene-9,10-dione]
[2]
  Colour: Purple
  log ε: 3.41
  λmax visible: 498 nm
  L1/2: 100 nm

## Cc1c(C(=O)O)c(O)c(N)c2c1C(=O)c1c(O)ccc(N)c1C2=O [Compound 19b, 4,5-diamino-3,8-dihydroxy-1-methyl-9,10-dioxo-anthracene-2-carboxylic acid]
[2]
  Colour: Purple
  log ε: 3.25
  λmax visible: 518 nm
  L1/2: 106 nm

## Quinizarin
[3]
  Measured logP: 3.7

From US20210309860A1, “ANTHRAQUINONIC DERIVATIVES AND THEIR USE AS COLOURING AGENTS” (PILI, priority 2018, published 2021)
